From patent publication US9573910B2, “Oxazolidinone antibacterial compound” (Lee Pharma Limited, priority 2013, dated 2017)
Read-outs that look alike come from different tables or passages of the source.

Columns and labels:
S. maltophilia = assay: Susceptibility test profile for commercially available antibiotics; assay type: cell-based, Stenotrophomonas maltophilia
Description: Anti bacterial evaluation of compound-I was done against Stenotrophomonas maltophilia on following parameters— • f. Agar-plate assay for different concentrations (10, 50, 100, 150 μg) • g. MIC studies • 1. With different concentrations (1000 to 5 μg/ml-˜10 different concentrations) • 2. Different time periods (4 to 32 hrs—8 different time intervals) • h. Mode of action with relation to survivability of organism • 1. Cidal/static with concentration and incubation time based) • 2. Evaluation by colony counting/dye based • i. Susceptibility test (evaluation of >40 antibiotics of different nature) • j. Antibacterial potential studies with other infectious bacteria (˜20 different strains) Results Agar-Plate Assay
Susceptibility Test Profile of S. maltophilia for Different Antibiotics (FIG. 10)

P. aeruginosa = assay type: cell-based
P. vulgaris = assay type: cell-based
S. maltophilla = assay type: cell-based
S. mutans = assay type: cell-based
Lysinobacillus = assay type: cell-based
B. subtilis = assay type: cell-based
B. sphaericus = assay type: cell-based
B. cereus (1) = assay type: cell-based
S. typhi = assay type: cell-based
B. circulans = assay type: cell-based
M. luteus = assay type: cell-based
P. putida = assay type: cell-based
E. coli = assay type: cell-based
B. cereus (3) = assay type: cell-based
B. sterothemophilus = assay type: cell-based
B. cereus (2) = assay type: cell-based
B. megatherium = assay type: cell-based
K. pneumonia = assay type: cell-based
P. mirabilis = assay type: cell-based
[1] = tested on: Stenotrophomonas maltophilia; assay: Agar plate assay, zone of growth inhibition; assay type: cell-based; settings: for zone of inhibition at 50 µg/disc: Stenotrophomonas maltophilia, read-out: Zone of growth inhibition in mm; for Activity against S. maltophilia (in words): agar plate
Description: To evaluate the same, 0 to 250 μg concentration range used for agar plate assay. Two percent agar plates were prepared and 24 hours grown S. maltophilia was spread on agar plate and incubated at 4° C. After 30 min, the agar plates consisting of S. maltophilia were brought to sterile environment at room temperature and using sterile borer wells were developed. […] After 24 hours of incubation at 37° C., the zone of inhibition was measured.

## CC[C@H]1OC(=O)[C@H](C)[C@@H](O[C@H]2C[C@@](C)(OC)[C@@H](O)[C@H](C)O2)[C@H](C)[C@@H](O[C@@H]2O[C@H](C)C[C@H](N(C)C)[C@H]2O)[C@](C)(OC)C[C@@H](C)C(=O)[C@H](C)[C@@H](O)[C@]1(C)O [Clarithromycin]
S. maltophilia; Quantity 15 μg
  Zone (mm): Resistant

## O=C1OCCN1/N=C/c1ccc([N+](=O)[O-])o1 [Furazolidone]
S. maltophilia; Quantity 50 μg
  Zone (mm): Resistant

## CCC[C@@H]1C[C@@H](C(=O)N[C@@H]([C@H]2O[C@H](SC)[C@H](O)[C@@H](O)[C@H]2O)[C@@H](C)O)N(C)C1 [Lincomycin]
S. maltophilia; Quantity 2 μg
  Zone (mm): Resistant

## CC(=O)NC[C@H]1CN(c2ccc(N3CCOCC3)c(F)c2)C(=O)O1 [Linezolid]
P. aeruginosa
  Zone of growth inhibition in mm: 00 mm
P. vulgaris
  Zone of growth inhibition in mm: 00 mm
S. maltophilla
  Zone of growth inhibition in mm: 00 mm
S. mutans
  Zone of growth inhibition in mm: 40 mm
S. paratyphi
  Zone of growth inhibition in mm: 00 mm
Lysinobacillus
  Zone of growth inhibition in mm: 40 mm
B. subtilis
  Zone of growth inhibition in mm: 40 mm
B. sphaericus
  Zone of growth inhibition in mm: 30 mm
B. cereus (1)
  Zone of growth inhibition in mm: 00 mm
S. typhi
  Zone of growth inhibition in mm: 40 mm
B. circulans
  Zone of growth inhibition in mm: 38 mm
M. luteus
  Zone of growth inhibition in mm: 45 mm
P. putida
  Zone of growth inhibition in mm: 00 mm
E. coli
  Zone of growth inhibition in mm: 35 mm
B. cereus (3)
  Zone of growth inhibition in mm: 45 mm
B. sterothemophilus
  Zone of growth inhibition in mm: 00 mm
B. cereus (2)
  Zone of growth inhibition in mm: 35 mm
B. megatherium
  Zone of growth inhibition in mm: 37 mm
K. pneumonia
  Zone of growth inhibition in mm: 35 mm
P. mirabilis
  Zone of growth inhibition in mm: 35 mm
[1]; S. maltophilia, agar plates, 50 μg of each compound dissolved in DMSO
  zone of inhibition at 50 µg/disc: 0 mm
[1]
  Activity against S. maltophilia (in words): not inhibitory

## CCn1cc(C(=O)O)c(=O)c2ccc(C)nc21 [Nalidixic]
S. maltophilia; Quantity 30 μg
  Zone (mm): 7 mm

## CCN[C@@H]1C[C@H](N)[C@@H](O[C@H]2OC(CN)=CC[C@H]2N)[C@H](O)[C@H]1O[C@H]1OC[C@](C)(O)[C@H](NC)[C@H]1O.CCN[C@@H]1C[C@H](N)[C@@H](O[C@H]2OC(CN)=CC[C@H]2N)[C@H](O)[C@H]1O[C@H]1OC[C@](C)(O)[C@H](NC)[C@H]1O.O=S(=O)(O)O.O=S(=O)(O)O.O=S(=O)(O)O.O=S(=O)(O)O.O=S(=O)(O)O [Netillin(Netilmicin sulphate), Netilmicin sulphate]
S. maltophilia; Quantity 30 μg
  Zone (mm): 7 mm

## CN[C@H](CC(C)C)C(=O)N[C@H]1C(=O)N[C@@H](CC(N)=O)C(=O)N[C@H]2C(=O)N[C@H]3C(=O)N[C@H](C(=O)N[C@H](C(=O)O)c4cc(O)cc(O)c4-c4cc3ccc4O)[C@H](O)c3ccc(c(Cl)c3)Oc3cc2cc(c3O[C@@H]2O[C@H](CO)[C@@H](O)[C@H](O)[C@H]2O[C@H]2C[C@](C)(N)[C@H](O)[C@H](C)O2)Oc2ccc(cc2Cl)[C@H]1O [Vancomycin]
P. aeruginosa
  Zone of growth inhibition in mm: 00 mm
P. vulgaris
  Zone of growth inhibition in mm: 00 mm
S. maltophilla
  Zone of growth inhibition in mm: 00 mm
S. mutans
  Zone of growth inhibition in mm: 30 mm
S. paratyphi
  Zone of growth inhibition in mm: 25 mm
Lysinobacillus
  Zone of growth inhibition in mm: 30 mm
B. subtilis
  Zone of growth inhibition in mm: 25 mm
B. sphaericus
  Zone of growth inhibition in mm: 12 mm
B. cereus (1)
  Zone of growth inhibition in mm: 00 mm
S. typhi
  Zone of growth inhibition in mm: 14 mm
B. circulans
  Zone of growth inhibition in mm: 27 mm
M. luteus
  Zone of growth inhibition in mm: 32 mm
P. putida
  Zone of growth inhibition in mm: 00 mm
E. coli
  Zone of growth inhibition in mm: 25 mm
B. cereus (3)
  Zone of growth inhibition in mm: 32 mm
B. sterothemophilus
  Zone of growth inhibition in mm: 00 mm
B. cereus (2)
  Zone of growth inhibition in mm: 27 mm
B. megatherium
  Zone of growth inhibition in mm: 27 mm
K. pneumonia
  Zone of growth inhibition in mm: 25 mm
P. mirabilis
  Zone of growth inhibition in mm: 27 mm
[1]
  zone of inhibition at 50 µg/disc: 0 mm
  Activity against S. maltophilia (in words): not inhibitory

## Gentamicin
S. maltophilia; Quantity 10 μg
  Zone (mm): 7 mm

## Penicillin
S. maltophilia; Quantity 10 μg
  Zone (mm): 6 mm

## Teicoplanin
S. maltophilia; Quantity 30 μg
  Zone (mm): 4 mm
